Key:
barnyardgrass = assay: Test A postemergence; type: in vivo, Echinochloa crus-galli
Summary of the method: (§1)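 Greenhouse pot test, loam/sand soil. Formulation: non-phytotoxic solvent mix plus surfactant. Pre: directed spray onto soil after sowing. Post: plants at 1–2 leaf, 2–10 cm. Rated visually vs untreated controls at ~10 d, 0 (no effect) to 100 (complete control).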

giant foxtail [1] = assay: Test A postemergence; type: in vivo, Setaria faberii
Summary of the method: as §1

corn [2] = assay: Test A postemergence; type: in vivo, Zea mays
Summary of the method: as §1

Heteranthera limosa = assay: Test B flooded paddy test; type: in vivo; settings: Flood, 250 g ai/ha; 0 to 100 scale where 0 is no effect and 100 is complete control
Summary of the method: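 Scores from 0 (no effect) to 100 (complete control) are visual comparisons with controls, taken 13 to 15 days after compound was applied into floodwater 3 cm deep around 2-leaf plants.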

corn [3] = assay: Test C postemergence; type: in vivo, Zea mays; settings: for Plant response rating (0 to 100), Corn: 16 g ai/ha, 0 is no effect, 100 is complete control; for Corn plant response rating: 31 g ai/ha; for Corn plant response rating / Plant response rating, Corn: scale 0 to 100 (0 no effect, 100 complete control)
Summary of the method: (§2)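 Injury was assessed visually against controls 13 to 15 days after application, with 0 meaning no effect and 100 full control; missing entries are shown as a dash. Preemergence sprays hit seeded loam–sand soil, postemergence sprays hit 1- to 4-leaf plants.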

giant foxtail [4] = assay: Test C postemergence; type: in vivo, Setaria faberii; settings: for Plant response rating (0 to 100), Foxtail, Giant: 16 g ai/ha, 0 is no effect, 100 is complete control; for Foxtail, Giant plant response rating: 31 g ai/ha; for Foxtail, Giant plant response rating / Plant response rating, Foxtail, Giant: scale 0 to 100 (0 no effect, 100 complete control)
Summary of the method: as §2

johnsongrass = assay: Test C postemergence; type: in vivo, Sorghum halepense; settings: for Plant response rating (0 to 100), Johnsongrass: 16 g ai/ha, 0 is no effect, 100 is complete control; for Johnsongrass plant response rating: 31 g ai/ha; for Johnsongrass plant response rating / Plant response rating, Johnsongrass: scale 0 to 100 (0 no effect, 100 complete control)
Summary of the method: as §2

morningglory = assay: Test C postemergence; type: in vivo, Ipomoea coccinea; settings: for Plant response rating (0 to 100), Morningglory: 16 g ai/ha, 0 is no effect, 100 is complete control; for Morningglory plant response rating: 31 g ai/ha; for Morningglory plant response rating / Plant response rating, Morningglory: scale 0 to 100 (0 no effect, 100 complete control)
Summary of the method: as §2

pigweed = assay: Test C postemergence; type: in vivo, Amaranthus retroflexus; settings: for Plant response rating (0 to 100), Pigweed: 16 g ai/ha, 0 is no effect, 100 is complete control; for Pigweed plant response rating: 31 g ai/ha; for Pigweed plant response rating / Plant response rating, Pigweed: scale 0 to 100 (0 no effect, 100 complete control)
Summary of the method: as §2

oilseed rape = assay: Test C postemergence; type: in vivo, Brassica napus; settings: for Plant response rating (0 to 100), Oilseed Rape: 16 g ai/ha, 0 is no effect, 100 is complete control; for Oilseed Rape plant response rating: 31 g ai/ha; for Oilseed Rape plant response rating / Plant response rating, Oilseed Rape: scale 0 to 100 (0 no effect, 100 complete control)
Summary of the method: as §2

waterhemp = assay: Test C postemergence; type: in vivo, Amaranthus rudis; settings: for Plant response rating (0 to 100), Waterhemp: 16 g ai/ha, 0 is no effect, 100 is complete control; for Waterhemp plant response rating: 31 g ai/ha; for Waterhemp plant response rating / Plant response rating, Waterhemp: scale 0 to 100 (0 no effect, 100 complete control)
Summary of the method: as §2

velvetleaf = assay: Test C postemergence; type: in vivo, Abutilon theophrasti; settings: for Plant response rating (0 to 100), Velvetleaf: 16 g ai/ha, 0 is no effect, 100 is complete control; for Velvetleaf plant response rating: 31 g ai/ha; for Velvetleaf plant response rating / Plant response rating, Velvetleaf: scale 0 to 100 (0 no effect, 100 complete control)
Summary of the method: as §2

[5] = 125 g ai/ha, 0 to 100 scale, 0 no effect, 100 complete control
[6] = 500 g ai/ha, 0 to 100 scale where 0 is no effect and 100 is complete control
[7] = postemergence, visual rating, 13 to 15 days
[8] = 125 g ai/ha, postemergence, visual rating
[9] = Postemergence, 62 g ai/ha, 13 to 15 days
[10] = 31 g ai/ha, 0 to 100 scale, 0 no effect, 100 complete control

Row | SMILES | Plant response rating, Barnyardgrass (barnyardgrass; [5]) | Plant response rating, Foxtail, Giant (giant foxtail [1]; [5]) | Plant response rating, Corn (corn [2]; [5]) | Plant response rating, Ducksalad (Heteranthera limosa) | Plant response rating (0 to 100), Corn (corn [3]; postemergence) | Corn plant response rating (corn [3]; [7]) | Plant response rating, Corn (corn [3]; [8]) | Plant response rating, Corn (corn [3]; [9]) | Plant response rating (0 to 100), Foxtail, Giant (giant foxtail [4]; postemergence) | Foxtail, Giant plant response rating (giant foxtail [4]; [7]) | Plant response rating, Foxtail, Giant (giant foxtail [4]; [8]) | Plant response rating, Foxtail, Giant (giant foxtail [4]; [9]) | Plant response rating (0 to 100), Johnsongrass (johnsongrass; postemergence) | Johnsongrass plant response rating (johnsongrass; [7]) | Plant response rating, Johnsongrass (johnsongrass; [8]) | Plant response rating, Johnsongrass (johnsongrass; [9]) | Plant response rating (0 to 100), Morningglory (morningglory; postemergence) | Morningglory plant response rating (morningglory; [7]) | Plant response rating, Morningglory (morningglory; [8]) | Plant response rating, Morningglory (morningglory; [9]) | other results
1 | N#Cc1cn(-c2c(C#N)cccc2Oc2ncc(Cl)cn2)nn1 [Compound 273] | 70 | 70 | 40 | 75 | 5 | 5 | 5 | 5 | 10 | 40 | 20 | 10 | 0 | 0 | 5 | 5 | 60 | 65 | 85 | 65 | Plant response rating, Barnyardgrass (barnyardgrass; [6]): 90; Plant response rating, Foxtail, Giant (giant foxtail [1]; [6]): 90; Plant response rating, Corn (corn [2]; [6]): 50; Plant response rating (0 to 100), Pigweed (pigweed; postemergence): 65; Pigweed plant response rating (pigweed; [7]): 80; Plant response rating, Pigweed (pigweed; [8]): 90; Plant response rating, Pigweed (pigweed; [9]): 65; Plant response rating (0 to 100), Oilseed Rape (oilseed rape; postemergence): 0; Oilseed Rape plant response rating (oilseed rape; [7]): 0; Plant response rating, Oilseed Rape (oilseed rape; [8]): 25; Plant response rating, Oilseed Rape (oilseed rape; [9]): 5; Plant response rating (0 to 100), Waterhemp (waterhemp; postemergence): 35; Waterhemp plant response rating (waterhemp; [7]): 40; Plant response rating, Waterhemp (waterhemp; [8]): 80; Plant response rating, Waterhemp (waterhemp; [9]): 65; Plant response rating (0 to 100), Velvetleaf (velvetleaf; postemergence): 5; Velvetleaf plant response rating (velvetleaf; [7]): 10; Plant response rating, Velvetleaf (velvetleaf; [8]): 30; Plant response rating, Velvetleaf (velvetleaf; [9]): 25
2 | FCc1cccc(Oc2ncc(Cl)cn2)c1-n1cc(I)cn1 [Compound 245] | 30 | 80 | 40 | 75 | 5 | 5 | 5 | 5 | 35 | 35 | 15 | 20 | 5 | 5 | 10 | 10 | 5 | 30 | 85 | 65 | Plant response rating, Barnyardgrass (barnyardgrass; [10]): 0; Plant response rating, Foxtail, Giant (giant foxtail [1]; [10]): 0; Plant response rating, Corn (corn [2]; [10]): 20; Plant response rating (0 to 100), Pigweed (pigweed; postemergence): 40; Pigweed plant response rating (pigweed; [7]): 55; Plant response rating, Pigweed (pigweed; [8]): 85; Plant response rating, Pigweed (pigweed; [9]): 75; Plant response rating (0 to 100), Oilseed Rape (oilseed rape; postemergence): 40; Oilseed Rape plant response rating (oilseed rape; [7]): 50; Plant response rating, Oilseed Rape (oilseed rape; [8]): 80; Plant response rating, Oilseed Rape (oilseed rape; [9]): 50; Plant response rating (0 to 100), Waterhemp (waterhemp; postemergence): 60; Waterhemp plant response rating (waterhemp; [7]): 65; Plant response rating, Waterhemp (waterhemp; [8]): 75; Plant response rating, Waterhemp (waterhemp; [9]): 85; Plant response rating (0 to 100), Velvetleaf (velvetleaf; postemergence): 5; Velvetleaf plant response rating (velvetleaf; [7]): 10; Plant response rating, Velvetleaf (velvetleaf; [8]): 55; Plant response rating, Velvetleaf (velvetleaf; [9]): 35

From US9695155B2, “Herbicidal substituted pyrimidinyloxy benzene compounds” (E. I. DU PONT DE NEMOURS AND COMPANY, priority 2013, dated 2017)
